Measured values: paper PMC6211316, “Synthesis and biological evaluation of 3-arylcoumarin derivatives as potential anti-diabetic agents” (Journal of Enzyme Inhibition and Medicinal Chemistry, 2018)

What was measured:
[1] = Oral toxicity to mice (Lorke's method); details: both sexes, mouse, in vivo, Kunming mice, observed 14 days
Experimental: With reference to Lorke’s method, kunming mice were used as targets to estimate the oral toxicity of each compound to mice. We select compounds 11, 17, 25, 28, and 35 at concentrations of 10, 100, and 1000 mg/kg to test their oral toxicity in the first phase, and 1600, 2900, and 5000 mg/kg at the second phase.
Experiments were performed on Kunming mice (male and female half, bw range, 25–30 g). Mice were housed in a climate and light controlled room with a 12 h light/dark cycle. Twelve hours before experiments, food was withheld, but animals had free access to drinking water. The compounds were suspended in vehicle (Tween-80, 0.2% in saline). The concentrations were adjusted to orally administrate 0.2 ml/10 g of bw. Mice were treated in two phases. In the first, intragastric doses of 10, 100 and 1000 mg/kg of bw of compounds were administered. On the second, the doses were adjusted to 1600, 2900, and 5000 mg/kg of bw of compounds. In both phases, mice were observed daily in a period of 14 days for mortality, toxic effects and/or changes in behavioural pattern. At the end of the experiments, the mice were sacrificed in a CO2 chamber.

normal mice = assay: Acute hypoglycemic assay in normal mice; assay type: in vivo
Experimental: STZ-induced diabetic mice and normal mice were placed in single cages with wire-net floors and deprived of food for 12 h before experimentation but allowed free access to tap water throughout. The compounds (at the doses of 10, 30, and 100 mg/kg of bw) were suspended in 0.05% Tween-80 in saline solution. Glibenclamide (10 mg/kg of bw) was suspended in the same vehicle. The target compounds were freshly prepared immediately before experimentation and administered by the intragastrical route at the doses of 10 ml/kg of bw. Control mice received only the vehicle (0.05% Tween-80 in saline solution) by the same route. Blood glucose levels were measured at 0, 1.5, 3, 5, 7, and 9 h after drugs administration.

[2] = tested on: STZ-induced diabetic mice; assay: Daily treatment for 16 days in STZ-induced diabetic mice; assay type: in vivo; details: for bw loss in hyperglycemic mice: 30 mg/kg of bw daily per os; for long-term anti-hyperglycemic effect (blood glucose levels): 30 mg/kg of bw oral, once a day, for 16 days
Experimental: Thereafter, the target compounds 11, 17, 35, and glibenclamide were administered once (9 a.m.) on a daily basis, for a period of 16 days, to STZ-induced diabetic mice which were divided into five groups (A-E). A six group of normal mice (Group F) was used as a control. Groups E (diabetic control) and F received vehicle (0.05% Tween-80 in saline solution) per os for 16 days. Group A received glibenclamide (10 mg/kg of bw daily). Groups B–D received different treatments: B, compound 11 (30 mg/kg of bw daily); C, compound 17 (30 mg/kg of bw daily); D, compound 35 (30 mg/kg of bw daily). All tested materials were suspended in the same vehicle and administered per os daily for 16 days. The animals were housed under standard laboratory conditions and maintained with free access to water and food during all the experiment. Blood glucose concentration on animals of diabetic (Groups A–E) and control group (Group F) was estimated at days 1, 4, 7, 10, 13, and 16. The bw of the animals were measured concomitantly to the blood glucose analyses. All experiments were carried out using six animals per group.

α-Glucosidase = biological target: T1, α-Glucosidase (Saccharomyces cerevisiae, UniProt P53341); assay: biochemical; assay type: biochemical; details: for α-glucosidase inhibitory activity (in words): in vitro; for IC50: mean ± SD (n = 3), read-out: α-Glucosidase inhibitory activity IC50 Value
T1 construct: purchased Sigma Aldrich G0660-750UN
Summary of the method: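 Yeast α-glucosidase and PNPG substrate in 100 mM phosphate buffer, pH 6.8, with DMSO-dissolved compounds were preincubated 10 min at 37 °C, then reacted 20 min at 37 °C after enzyme addition. Na2CO3 stopped the reaction; p-nitrophenol was read at 405 nm. Blank-corrected % inhibition and IC50 came from triplicates.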

T1 sequence (P53341 whole entry): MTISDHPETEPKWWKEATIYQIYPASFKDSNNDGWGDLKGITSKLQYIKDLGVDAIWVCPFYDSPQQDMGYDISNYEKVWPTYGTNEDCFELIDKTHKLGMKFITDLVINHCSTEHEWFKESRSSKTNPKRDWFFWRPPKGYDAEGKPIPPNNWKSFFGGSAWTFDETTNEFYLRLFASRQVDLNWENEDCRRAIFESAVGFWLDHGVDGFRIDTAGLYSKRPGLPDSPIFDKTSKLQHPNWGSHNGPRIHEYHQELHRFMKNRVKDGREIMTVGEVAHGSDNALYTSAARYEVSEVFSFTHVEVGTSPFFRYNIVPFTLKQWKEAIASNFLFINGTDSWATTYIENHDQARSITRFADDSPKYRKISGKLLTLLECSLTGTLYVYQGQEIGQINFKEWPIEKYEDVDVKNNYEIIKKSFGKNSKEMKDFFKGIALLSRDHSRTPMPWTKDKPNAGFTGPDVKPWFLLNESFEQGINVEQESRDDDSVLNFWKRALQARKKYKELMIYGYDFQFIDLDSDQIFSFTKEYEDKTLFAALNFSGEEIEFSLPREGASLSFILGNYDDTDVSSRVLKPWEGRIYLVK

Row | SMILES | LD50 at 14 days [1] | Blood glucose concentration (normal mice; 10 mg/kg of bw per os, 0h) | % Variation of glycemia (normal mice; 10 mg/kg of bw per os, 1.5h) | Blood glucose concentration (normal mice; 10 mg/kg of bw per os, 1.5h) | % Variation of glycemia (normal mice; 10 mg/kg of bw per os, 3h) | Blood glucose concentration (normal mice; 10 mg/kg of bw per os, 3h) | % Variation of glycemia (normal mice; 10 mg/kg of bw per os, 5h) | Blood glucose concentration (normal mice; 10 mg/kg of bw per os, 5h) | % Variation of glycemia (normal mice; 10 mg/kg of bw per os, 7h) | Blood glucose concentration (normal mice; 10 mg/kg of bw per os, 7h) | % Variation of glycemia (normal mice; 10 mg/kg of bw per os, 9h) | Blood glucose concentration (normal mice; 10 mg/kg of bw per os, 9h) | Blood glucose concentration (normal mice; 30 mg/kg of bw per os, 0h) | % Variation of glycemia (normal mice; 30 mg/kg of bw per os, 1.5h) | Blood glucose concentration (normal mice; 30 mg/kg of bw per os, 1.5h) | % Variation of glycemia (normal mice; 30 mg/kg of bw per os, 3h) | Blood glucose concentration (normal mice; 30 mg/kg of bw per os, 3h) | % Variation of glycemia (normal mice; 30 mg/kg of bw per os, 5h) | α-glucosidase inhibitory activity (in words) (α-Glucosidase) | IC50 (α-Glucosidase) | also measured
1 | COc1ccc(-c2cc3c(O)cc(O)cc3oc2=O)cc1 [Compound 35, 5,7-Dihydroxy-3-(4-methoxyphenyl)-coumarin] | > 5000 mg/kg | 10.8 ± 0.6 mM | (−14.55) % | 9.2 ± 0.6 mM | (−24.15) % | 8.2 ± 0.5 mM | (−25.70) % | 8.0 ± 0.4 mM | (−31.27) % | 7.4 ± 0.5 mM | (−34.06) % | 7.1 ± 0.3 mM | 10.5 ± 0.9 mM | (−17.72) % | 8.7 ± 1.0 mM | (−31.65) % | 7.2 ± 0.8 mM | (−39.24) % | moderate to excellent inhibitory activity | 10.8 ± 0.63 µM | Blood glucose concentration (normal mice; 30 mg/kg of bw per os, 5h): 6.4 ± 1.0 mM; % Variation of glycemia (normal mice; 30 mg/kg of bw per os, 7h): (−44.94) %; Blood glucose concentration (normal mice; 30 mg/kg of bw per os, 7h): 5.8 ± 0.7 mM; % Variation of glycemia (normal mice; 30 mg/kg of bw per os, 9h): (−44.30) %; Blood glucose concentration (normal mice; 30 mg/kg of bw per os, 9h): 5.9 ± 0.6 mM; Blood glucose concentration (normal mice; 100 mg/kg of bw per os, 0h): 10.6 ± 0.4 mM; % Variation of glycemia (normal mice; 100 mg/kg of bw per os, 1.5h): (−18.18) %; Blood glucose concentration (normal mice; 100 mg/kg of bw per os, 1.5h): 8.7 ± 0.5 mM; % Variation of glycemia (normal mice; 100 mg/kg of bw per os, 3h): (−40.44) %; Blood glucose concentration (normal mice; 100 mg/kg of bw per os, 3h): 6.3 ± 1.0 mM; % Variation of glycemia (normal mice; 100 mg/kg of bw per os, 5h): (−49.22) %; Blood glucose concentration (normal mice; 100 mg/kg of bw per os, 5h): 5.4 ± 0.6 mM; % Variation of glycemia (normal mice; 100 mg/kg of bw per os, 7h): (−55.17) %; Blood glucose concentration (normal mice; 100 mg/kg of bw per os, 7h): 4.8 ± 0.6 mM; % Variation of glycemia (normal mice; 100 mg/kg of bw per os, 9h): (−57.05) %; Blood glucose concentration (normal mice; 100 mg/kg of bw per os, 9h): 4.6 ± 0.7 mM; bw loss in hyperglycemic mice ([2]; 16 days): prevented bw loss; blood glucose levels at the end of the experiment ([2]; 30 mg/kg of bw daily, 16 days): restored blood glucose levels to near normal values; long-term anti-hyperglycemic effect (blood glucose levels) [2]: induced obviously anti-hyperglycemic effect
2 | Cc1ccc(-c2cc3c(O)cc(O)cc3oc2=O)cc1 [Compound 25, 5,7-Dihydroxy-3-(4-methylphenyl)-coumarin] | > 5000 mg/kg | – | – | – | – | – | – | – | – | – | – | – | – | – | – | – | – | – | moderate to excellent inhibitory activity | 11.5 ± 0.37 µM | –
3 | Cc1ccccc1-c1cc2ccc(O)cc2oc1=O [Compound 11, 7-Hydroxy-3-(2-methylphenyl)-coumarin] | > 5000 mg/kg | 10.0 ± 0.7 mM | (−15.27) % | 9.1 ± 0.2 mM | (−28.35) % | 7.7 ± 0.6 mM | (−38.01) % | 6.6 ± 0.5 mM | (−47.98) % | 5.6 ± 0.4 mM | (−48.91) % | 5.5 ± 1.2 mM | 10.2 ± 1.2 mM | (−13.62) % | 8.7 ± 1.2 mM | (−30.90) % | 6.9 ± 1.1 mM | (−40.86) % | moderate to excellent inhibitory activity | 16.4 ± 1.23 µM | Blood glucose concentration (normal mice; 30 mg/kg of bw per os, 5h): 5.9 ± 1.1 mM; % Variation of glycemia (normal mice; 30 mg/kg of bw per os, 7h): (−47.84) %; Blood glucose concentration (normal mice; 30 mg/kg of bw per os, 7h): 5.2 ± 0.8 mM; % Variation of glycemia (normal mice; 30 mg/kg of bw per os, 9h): (−49.17) %; Blood glucose concentration (normal mice; 30 mg/kg of bw per os, 9h): 5.1 ± 0.6 mM; Blood glucose concentration (normal mice; 100 mg/kg of bw per os, 0h): 10.4 ± 0.7 mM; % Variation of glycemia (normal mice; 100 mg/kg of bw per os, 1.5h): (−31.37) %; Blood glucose concentration (normal mice; 100 mg/kg of bw per os, 1.5h): 7.0 ± 1.1 mM; % Variation of glycemia (normal mice; 100 mg/kg of bw per os, 3h): (−42.16) %; Blood glucose concentration (normal mice; 100 mg/kg of bw per os, 3h): 5.9 ± 0.6 mM; % Variation of glycemia (normal mice; 100 mg/kg of bw per os, 5h): (−52.94) %; Blood glucose concentration (normal mice; 100 mg/kg of bw per os, 5h): 4.8 ± 1.3 mM; % Variation of glycemia (normal mice; 100 mg/kg of bw per os, 7h): (−54.25) %; Blood glucose concentration (normal mice; 100 mg/kg of bw per os, 7h): 4.7 ± 0.4 mM; % Variation of glycemia (normal mice; 100 mg/kg of bw per os, 9h): (−58.17) %; Blood glucose concentration (normal mice; 100 mg/kg of bw per os, 9h): 4.3 ± 0.3 mM; bw loss in hyperglycemic mice ([2]; 16 days): prevented bw loss; long-term anti-hyperglycemic effect (blood glucose levels) [2]: less efficient in decreasing blood glucose levels
4 | O=c1oc2ccc(O)cc2cc1-c1ccc(O)cc1 [Compound 17, 6-Hydroxy-3-(4-hydroxyphenyl)-coumarin] | > 5000 mg/kg | 10.6 ± 0.4 mM | (−23.96) % | 7.9 ± 0.7 mM | (−34.19) % | 6.9 ± 0.8 mM | (−45.37) % | 5.7 ± 0.7 mM | (−48.56) % | 5.4 ± 0.5 mM | (−51.12) % | 5.1 ± 0.4 mM | 10.8 ± 0.3 mM | (−18.39) % | 8.4 ± 1.0 mM | (−33.55) % | 6.9 ± 0.9 mM | (−48.71) % | moderate to excellent inhibitory activity | 11.5 ± 1.3 µM | Blood glucose concentration (normal mice; 30 mg/kg of bw per os, 5h): 5.3 ± 0.7 mM; % Variation of glycemia (normal mice; 30 mg/kg of bw per os, 7h): (−48.71) %; Blood glucose concentration (normal mice; 30 mg/kg of bw per os, 7h): 5.3 ± 1.1 mM; % Variation of glycemia (normal mice; 30 mg/kg of bw per os, 9h): (−56.45) %; Blood glucose concentration (normal mice; 30 mg/kg of bw per os, 9h): 4.5 ± 0.6 mM; Blood glucose concentration (normal mice; 100 mg/kg of bw per os, 0h): 10.4 ± 0.2 mM; % Variation of glycemia (normal mice; 100 mg/kg of bw per os, 1.5h): (−25.90) %; Blood glucose concentration (normal mice; 100 mg/kg of bw per os, 1.5h): 7.5 ± 1.2 mM; % Variation of glycemia (normal mice; 100 mg/kg of bw per os, 3h): (−37.71) %; Blood glucose concentration (normal mice; 100 mg/kg of bw per os, 3h): 6.3 ± 0.9 mM; % Variation of glycemia (normal mice; 100 mg/kg of bw per os, 5h): (−49.18) %; Blood glucose concentration (normal mice; 100 mg/kg of bw per os, 5h): 5.2 ± 0.5 mM; % Variation of glycemia (normal mice; 100 mg/kg of bw per os, 7h): (−53.44) %; Blood glucose concentration (normal mice; 100 mg/kg of bw per os, 7h): 4.7 ± 0.4 mM; % Variation of glycemia (normal mice; 100 mg/kg of bw per os, 9h): (−58.03) %; Blood glucose concentration (normal mice; 100 mg/kg of bw per os, 9h): 4.3 ± 0.4 mM; bw loss in hyperglycemic mice ([2]; 16 days): prevented bw loss; long-term anti-hyperglycemic effect (blood glucose levels) [2]: induced obviously anti-hyperglycemic effect
